Calls of active or inactive are those of the source. The calls are words filed in the database; no cut-off is given here.
Tests used:
SARS-CoV-2 [1] = assay: (§1) Antiviral activity against SARS-CoV-2 USA_WA1/2020 infected in human iPSC derived lung organoids assessed as reduction in viral RNA in cell supernatant at 5 uM pretreated for 2 hrs with compound followed by viral infection for 2 hrs then followed by washout and replacement with fresh medium and measured after 72 hrs by qRT-PCR analysis relative to control; format: functional, organism-based; details: Severe acute respiratory syndrome coronavirus 2, time 76.0 hrs
SARS-CoV-2 [2] = assay: as §1, with “intracellular fraction” for “cell supernatant”; format: functional, organism-based; details: Severe acute respiratory syndrome coronavirus 2, time 76.0 hrs

Question: How did the Activity (SARS-CoV-2 [1]) turn out when `O=c1c2ccccc2[se]n1-c1cccc(C(F)(F)F)c1` was run?
Answer: The Activity was “Active”.

Question: And the Activity (SARS-CoV-2 [2])?
Answer: The Activity was “Active”.

Source: ChEMBL document CHEMBL5042483, “Discovery and Mechanism of SARS-CoV-2 Main Protease Inhibitors” (J Med Chem, 2022)
